Results as given in PMC8469457, “Proline-Specific Fungal Peptidases: Genomic Analysis and Identification of Secreted DPP4 in Alkaliphilic and Alkalitolerant Fungi” (Journal of Fungi, 2021).

Target: T1, DPP4 of S. alkalinus F11 (secreted DPP4, culture filtrate) (Sodiomyces alkalinus, UniProt A0A3N2PX53)
T1 construct: gene SODALDRAFT_276413; native secreted enzyme, unpurified 14-day culture filtrate; link of ROT38925.1 to the assayed activity is inferred
T1 sequence (A0A3N2PX53 27-782): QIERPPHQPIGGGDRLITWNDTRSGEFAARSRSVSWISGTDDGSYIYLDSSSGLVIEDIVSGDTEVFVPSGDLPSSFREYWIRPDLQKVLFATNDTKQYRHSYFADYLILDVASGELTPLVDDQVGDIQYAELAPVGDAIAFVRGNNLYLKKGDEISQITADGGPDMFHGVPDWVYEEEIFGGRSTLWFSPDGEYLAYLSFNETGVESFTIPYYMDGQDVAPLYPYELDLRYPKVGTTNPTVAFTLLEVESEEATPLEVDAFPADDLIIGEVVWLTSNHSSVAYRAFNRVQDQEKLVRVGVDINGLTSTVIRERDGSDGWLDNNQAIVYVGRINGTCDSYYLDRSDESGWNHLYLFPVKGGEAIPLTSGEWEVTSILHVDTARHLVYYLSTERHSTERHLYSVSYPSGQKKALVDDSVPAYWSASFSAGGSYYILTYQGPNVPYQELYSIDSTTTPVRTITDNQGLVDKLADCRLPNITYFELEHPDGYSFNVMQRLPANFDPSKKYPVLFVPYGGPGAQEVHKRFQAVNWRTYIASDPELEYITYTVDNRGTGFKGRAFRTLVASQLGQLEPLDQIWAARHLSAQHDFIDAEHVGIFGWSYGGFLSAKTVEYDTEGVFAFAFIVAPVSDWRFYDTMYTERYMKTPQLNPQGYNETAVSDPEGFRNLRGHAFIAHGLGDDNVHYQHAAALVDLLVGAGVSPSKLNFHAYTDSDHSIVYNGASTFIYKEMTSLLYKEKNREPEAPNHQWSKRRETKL
Assay: residual hydrolysis of Ala-Pro-pNa, absorbance at […] nm, culture filtrate
Type: biochemical
Settings: read-out: % residual activity at 0.25 mM

remaining activity at 250 µM: 3.2%
Structure (SMILES): CC[C@H](C)[C@H](N)C(=O)N1CCC[C@H]1C(=O)N[C@H](C(=O)O)[C@@H](C)CC [diprotin A]
